Experimental data as given in patent US12473276B2, “Compound having neuroprotective effect, preparation method therefor and use thereof” (Shanghai Zhimeng Biopharma, Inc., priority 2019, dated 2025).
Where “and” joins values, the source holds several entries; their conditions need not be identical. Equal values may be shown once.

Tested on: rat focal cerebral ischemia-reperfusion model (Middle cerebral artery occlusion, MCAO)
Assay: Protective effect on focal cerebral ischemia reperfusion (MCAO) in rats: cerebral infarction area by TTC staining
Type: in vivo, Sprague Dawley (SD) rat
Details: for Cerebral infarction area in rats (%): 2.0 h ischemia then reperfusion, mean ± standard error; for Effect on reducing the cerebral infarct area in model rats compared with the model group (significance): P<0.05 significant; for Compared with the model group, the reduced proportion of cerebral infarction area in the compound group: versus model group of the same test
Protocol: Sprague Dawley (SD) rat, male, SPF grade, weight 250-280 g
• Compounds 04007, 04015, 04041, 04047, 04050 and 04089 • Commercially available edaravone injection, products of Nanjing Simcere dongyuan pharmaceutical Co., Ltd, specifications 10 mg/mL 1.3 Experimental Method 1.3.1 Preparation of Focal Cerebral Ischemia-Reperfusion Model
The rat focal cerebral ischemia-reperfusion model (Middle cerebral artery occlusion, MCAO) was prepared by internal carotid artery suture method. Rats were injected intraperitoneally with 7% chloral hydrate (6.0 mL/kg), and the depth of anesthesia was appropriate for severe stimulation of animals with slight reaction. The anesthetized rats were tightened with rubber bands on the limbs (the hind limbs were fixed above the knee joint, and the forelimbs were fixed above the wrist joint) and the head, and the animals were fixed on the operating table in the supine position, and the animal shaver was used from the head end to the chest to shave hair, and the skin was disinfected with alcohol. The neck was cut in the middle and the subcutaneous tissue was blunt separated. […] The arterial shell was opened, the right carotid bifurcation was exposed, and the right common carotid artery, external carotid artery, internal carotid artery were separated, the vagus nerve was gently peeled off, the external carotid artery was ligated and cut off. The end of the common carotid artery proximity to the heart was clamped, and an incision was made from the distal end of the ligature line of the external carotid artery, suture was inserted and entered into the internal carotid artery through the bifurcation of the common carotid artery, and then slowly inserted until there was slight resistance (about 20 mm from the bifurcation), all blood supply of the middle cerebral artery was blocked. The suture was slightly fixed with the silk under the incision of the external carotid artery, the clamping silk at the end of the common carotid artery proximity to the heart was loosen, the wound surface was covered with gauze soaked with disinfected normal saline, and the rats were kept warm by placing on the heat preservation mat. After right cerebral ischemia for 2.0 h, the suture was gently pulled out, blood supply was restored for reperfusion, the external carotid artery was ligated with the silk fixing the suture, the skin was sutured, and disinfected.
The experimental animals were divided into model group, edaravone group (6 mg/kg) and compound to be tested group (5 mg/kg ration of compound to be tested: 5% DMAC+5% Solutol HS 15+90% Saline were used to prepare a solution with a concentration of 1 mg/mL.
After the ischemia model was prepared, the animals were assigned to each group in a single blind with equal probability. The animals were administered intravenously once immediately after reperfusion, and the animals in the model group were given the same volume of normal saline. The animals were sacrificed 24 hours after ischemia, the brain was taken, stained and photographed to determine the area of cerebral infarction.
The degree of cerebral infarction was determined by TTC, staining. After the evaluation of the symptoms of neurological defects in animals was completed, the animals were killed with CO2, the brain was taken by decapitation, the olfactory bulb, cerebellum and low brainstem were removed, blood stains on the surface of the brain were washed with normal saline, residual water stains on the surface were sucked out, and placed at −20° C. for 20 min. Immediately after taking out, the coronal section was made vertically downward at the intersection plane of the line of sight, and cut a slice every 2 mm backwards, the brain slices were incubated in 1% TTC dye solution (37° C. for 20 min). The normal brain tissue was dyed crimson, while the ischemic brain tissue was pale. […]

[1] = compound 5 mg/kg intravenously once immediately after reperfusion, measured 24 hours after ischemia
[2] = compound 5 mg/kg versus edaravone 6 mg/kg

With `CN1CC(OC(=O)c2ccc(N3Cc4cc(Cl)cc(Cl)c4OC3=S)cn2)C1` [Compound 04007] the “Cerebral infarction area in rats (%)” value [1] was 35.41 ± 3.71%, the “Effect on reducing the cerebral infarct area in model rats compared with the model group (significance)” value (compound 5 mg/kg i.v.) was “significantly reduce the cerebral infarct area” and the “Compared with the model group, the reduced proportion of cerebral infarction area in the compound group” value (compound 5 mg/kg i.v.) was 26%. For the same molecule, the “Efficacy compared with the positive control drug edaravone group” value [2] was “equivalent or better efficacy”.
With `CCOC(=O)c1ccc(Cn2c(=S)oc3c(Cl)cc(Cl)cc32)cc1O` [Compound 04041] the “Cerebral infarction area in rats (%)” value [1] was 30.37 ± 4.36%, the “Effect on reducing the cerebral infarct area in model rats compared with the model group (significance)” value (compound 5 mg/kg i.v.) was “significantly reduce the cerebral infarct area” and the “Compared with the model group, the reduced proportion of cerebral infarction area in the compound group” value (compound 5 mg/kg i.v.) was 37%. The “Efficacy compared with the positive control drug edaravone group” value [2] was “equivalent or better efficacy”.
For `CC(C)OC(=O)c1ccc(N2COc3c(Cl)cc(Cl)cc3C2)cn1` [Compound 04047], the “Cerebral infarction area in rats (%)” value [1] was 35.47 ± 5.34%, the “Effect on reducing the cerebral infarct area in model rats compared with the model group (significance)” value (compound 5 mg/kg i.v.) was “no significant effect on reducing the cerebral infarct area” and the “Compared with the model group, the reduced proportion of cerebral infarction area in the compound group” value (compound 5 mg/kg i.v.) was 15%.
With `C#CCCOC(=O)c1ccc(N2Cc3cc(Cl)cc(Cl)c3OC2=S)cn1` [Compound 04050] the “Cerebral infarction area in rats (%)” value [1] was 30.97 ± 4.33%, the “Effect on reducing the cerebral infarct area in model rats compared with the model group (significance)” value (compound 5 mg/kg i.v.) was “significantly reduce the cerebral infarct area” and the “Compared with the model group, the reduced proportion of cerebral infarction area in the compound group” value (compound 5 mg/kg i.v.) was 26%. The “Efficacy compared with the positive control drug edaravone group” value [2] was “equivalent or better efficacy”.
`CCOCCOC(=O)c1ccc(N2Cc3cc(Cl)cc(Cl)c3OC2=S)cn1` [Compound 04089] was tested, and the “Cerebral infarction area in rats (%)” value (compound 0.5 mg/kg intravenously once immediately after reperfusion, measured 24 hours after ischemia) was 27.80 ± 2.22%, the “Effect on reducing the cerebral infarct area in model rats compared with the model group (significance)” value (compound 0.5 mg/kg i.v.) was “significantly reduce the cerebral infarct area” and the “Compared with the model group, the reduced proportion of cerebral infarction area in the compound group” value (compound 0.5 mg/kg i.v.) was 34%. For the same molecule, the “Efficacy compared with the positive control drug edaravone group” value (compound 0.5 mg/kg versus edaravone 6 mg/kg) was “equivalent or better efficacy”.
In the case of `CC1=NN(c2ccccc2)C(=O)C1` [edaravone, reference compound], the “Cerebral infarction area of rats in edaravone group in the same test(%)” value (edaravone 6 mg/kg intravenously once immediately after reperfusion, measured 24 hours after ischemia, one value per test run) is reported as 32.08% and 27.44% and 28.47% and 32.45%.
